Values quoted from earlier work as cited in patent publication US20080305060A1, “AQUEOUS-ALCOHOLIC DEPIGMENTING GELS” (GALDERMA RESEARCH & DEVELOPMENT, priority 2005, published 2008).
Read-outs that look alike come from different tables or passages of the source.

For Oc1ccc(O)cc1 [hydroquinone], the Incidence of irritation (10% hydroquinone concentration) is listed as “relatively high”, the Incidence of irritation (hydroquinone concentration of 2%) is listed as “virtually nonexistent” and the Incidence of irritation (preparations with a 5% dose of hydroquinone) is listed as “reduces greatly”.
